In ChEMBL document CHEMBL5241112, “Insights into the recent progress in the medicinal chemistry of pyranopyrimidine analogs” (RSC Med Chem, 2022):
In brackets after ≈: the same amount, converted by molar mass.

Key:
Homo sapiens = species: Homo sapiens; assay: Anticoagulant activity in human plasma assessed as activated partial thromboplastin time at 1000 ug/ml incubated for 4 mins; assay type: functional; conditions: dose 1000 µg/ml
Salmonella typhimurium = assay: Antibacterial activity against Salmonella typhimurium assessed as diameter of inhibition zone; assay type: functional, Salmonella enterica subsp. enterica serovar Typhimurium
Escherichia coli [1] = assay: Antibacterial activity against Escherichia coli assessed as diameter of inhibition zone; assay type: functional
Bacillus subtilis = assay: Antibacterial activity against Bacillus subtilis assessed as diameter of inhibition zone; assay type: functional
Staphylococcus aureus [2] = assay: Antibacterial activity against Staphylococcus aureus assessed as diameter of inhibition zone; assay type: functional
Albumin = Albumin (Bos taurus, UniProt P02769); assay: […] bovine serum albumin denaturation incubated for 23 mins by UV-Visible spectrophotometry
Alpha-glucosidase = Alpha-glucosidase (Saccharomyces cerevisiae S288c, UniProt P53341+P38158+P07265); assay: Inhibition of Saccharomyces cerevisiae alpha-glucosidase preincubated for 5 mins followed by PNP-GLUC substrate addition and measured after 20 mins by spectroscopic analysis; assay type: protein assay
[3] = Inhibition of porcine pancreatic alpha-amylase preincubated for 10 mins followed by substrate starch addition and measured after 10 mins by colorimetric analysis; set-up: species or system Sus scrofa
Bacillus cereus = assay: Antimicrobial activity against Bacillus cereus ATCC14579 assessed as diameter of inhibition zone at 20 mg/ml incubated for 24 hrs by disk diffusion method; assay type: functional; conditions: read-out: DIZ
Pseudomonas aeruginosa = assay: Antimicrobial activity against Pseudomonas aeruginosa ATCC 27853 assessed as diameter of inhibition zone at 20 mg/ml incubated for 24 hrs by disk diffusion method; assay type: functional; conditions: read-out: DIZ
Escherichia coli [4] = assay: Antimicrobial activity against Escherichia coli ATCC 14169 assessed as diameter of inhibition zone at 20 mg/ml incubated for 24 hrs by disk diffusion method; assay type: functional; conditions: read-out: DIZ
Klebsiella pneumoniae = assay: Antimicrobial activity against Klebsiella pneumoniae UC57 assessed as diameter of inhibition zone at 20 mg/ml incubated for 24 hrs by disk diffusion method; assay type: functional; conditions: read-out: DIZ
Staphylococcus aureus [5] = assay: Antimicrobial activity against Staphylococcus aureus NCTC7447 assessed as diameter of inhibition zone at 20 mg/ml incubated for 24 hrs by disk diffusion method; assay type: functional; conditions: read-out: DIZ
[6] = system: Mycobacterium tuberculosis; assay: Antitubercular activity against Mycobacterium tuberculosis H37Rv assessed as bacterial growth inhibition incubated for 24 hrs by MABA assay; assay type: functional
HCT-116 = assay: Anticancer activity against human HCT-116 cells assessed as reduction in cell viability incubated for 96 hrs by MTT assay; assay type: functional, cell-based; conditions: HCT-116, 96 h
MCF7 = assay: cells; conditions: Homo sapiens, MCF7, 48 h

Albumin, sequence (P02769 whole entry): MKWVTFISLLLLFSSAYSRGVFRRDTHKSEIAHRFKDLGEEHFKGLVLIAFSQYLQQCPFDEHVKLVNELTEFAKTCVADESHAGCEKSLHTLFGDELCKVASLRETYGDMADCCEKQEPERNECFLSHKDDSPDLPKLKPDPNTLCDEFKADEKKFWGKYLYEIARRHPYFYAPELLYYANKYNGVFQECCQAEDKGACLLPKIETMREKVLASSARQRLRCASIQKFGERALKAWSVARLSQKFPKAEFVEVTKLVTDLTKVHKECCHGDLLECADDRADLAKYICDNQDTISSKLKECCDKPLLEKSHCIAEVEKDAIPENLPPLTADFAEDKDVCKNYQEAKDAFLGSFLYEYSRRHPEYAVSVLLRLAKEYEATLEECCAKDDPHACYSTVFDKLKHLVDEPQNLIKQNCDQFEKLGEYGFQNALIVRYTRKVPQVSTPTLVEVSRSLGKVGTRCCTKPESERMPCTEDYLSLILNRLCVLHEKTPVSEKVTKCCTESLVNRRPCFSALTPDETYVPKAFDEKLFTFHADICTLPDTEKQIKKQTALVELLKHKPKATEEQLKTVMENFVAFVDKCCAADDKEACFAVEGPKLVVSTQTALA

CC1(C)CC(=O)C2=C(C1)Oc1ncn(-c3ccccc3)c(=N)c1C2c1ccccc1 (configuration not stated)
Time (Homo sapiens): 57.1 s

N#CC1=C(N)Oc2[nH]c(=O)[nH]c(=O)c2C1c1cccc(Br)c1 (configuration not stated)
diameter of the inhibition zone (DIZ) (Salmonella typhimurium): 16 mm | diameter of the inhibition zone (DIZ) (Escherichia coli [1]): 14 mm | diameter of the inhibition zone (DIZ) (Bacillus subtilis): 18 mm | diameter of the inhibition zone (DIZ) (Staphylococcus aureus [2]): 16 mm

O=C(C1=C(c2ccccc2O)Oc2[nH]c(=S)[nH]c(=O)c2C1c1cc2ccccc2cc1O)N1CCCCC1 (configuration not stated)
IC50 (Albumin): 20.1 µM | IC50 (Alpha-glucosidase): 5337 µM | IC50 [3]: 6.49 µM

COc1ccc(C2C(C#N)=C(N)Oc3[nH]c(=O)[nH]c(=O)c32)cc1OC (configuration not stated)
zone of inhibition at 20000 µg/mL (Bacillus cereus): 9 mm | diameter of the inhibition zone (DIZ) (Salmonella typhimurium): 8 mm | zone of inhibition at 20000 µg/mL (Pseudomonas aeruginosa): 4 mm | zone of inhibition at 20000 µg/mL (Escherichia coli [4]): 8 mm | zone of inhibition at 20000 µg/mL (Klebsiella pneumoniae): 14 mm | diameter of the inhibition zone (DIZ) (Bacillus subtilis): 10 mm | zone of inhibition at 20000 µg/mL (Staphylococcus aureus [5]): 8 mm

O=c1nc2c3c([nH]1)Oc1ccc(Cl)cc1C3c1c(c3ccccc3oc1=O)O2 (configuration not stated)
MIC [6]: 6.25 µg/mL (≈ 15.9 µM)

O=c1nc2c3c([nH]1)Oc1ccc4ccccc4c1C3c1c(c3ccccc3oc1=O)O2 (configuration not stated)
MIC [6]: 25 µg/mL (≈ 61.2 µM)

CC1(C)CC(=O)C2=C(C1)Oc1ncn(-c3cccc4ccccc34)c(=N)c1C2c1ccccc1 (configuration not stated)
Time (Homo sapiens): 63.2 s

CCO/C=N/C1=C(C#N)C(c2cccs2)c2c([nH]c(=O)[nH]c2=O)O1 (configuration not stated)
IC50 (HCT-116): 2.9 µM

N#CC1=C(N)Oc2[nH]c(=O)[nH]c(=O)c2C1c1ccc(F)cc1 (configuration not stated)
diameter of the inhibition zone (DIZ) (Salmonella typhimurium): 12 mm | diameter of the inhibition zone (DIZ) (Escherichia coli [1]): 8 mm | diameter of the inhibition zone (DIZ) (Bacillus subtilis): 10 mm

O=C(C1=C(c2ccccc2O)Oc2[nH]c(=S)[nH]c(=O)c2C1c1ccc(O)cc1)N1CCCCC1 (configuration not stated)
IC50 (Albumin): 19.7 µM | IC50 (Alpha-glucosidase): 3553 µM | IC50 [3]: 27.1 µM

NC(=O)c1cnccn1 [PYRAZINAMIDE]
MIC [6]: 3.12 µg/mL (≈ 25.4 µM)

COc1cc(C2C(C(=O)N3CCCCC3)=C(c3ccccc3O)Oc3[nH]c(=S)[nH]c(=O)c32)ccc1O (configuration not stated)
IC50 (Albumin): 23.3 µM | IC50 (Alpha-glucosidase): 4862 µM | IC50 [3]: 22.6 µM

COc1cc(C2CC(=O)Oc3[nH]c(=O)[nH]c(=O)c32)cc(OC)c1OC (configuration not stated)
IC50 (MCF7): 8.9 µM

O=c1nc2c3c([nH]1)Oc1c(Cl)cc(Cl)cc1C3c1c(c3ccccc3oc1=O)O2 (configuration not stated)
MIC [6]: 50 µg/mL (≈ 117 µM)

COc1ccc2c(-c3nc4c5c(ncn4n3)OC3=C(C(=O)CC(C)(C)C3)C5c3ccccc3)cc(=O)oc2c1 (configuration not stated)
Time (Homo sapiens): 55.1 s

N#CC1=C(N)Oc2[nH]c(=O)[nH]c(=O)c2C1c1ccccc1[N+](=O)[O-] (configuration not stated)
zone of inhibition at 20000 µg/mL (Bacillus cereus): 10 mm | zone of inhibition at 20000 µg/mL (Pseudomonas aeruginosa): 9 mm | zone of inhibition at 20000 µg/mL (Escherichia coli [4]): 11 mm | zone of inhibition at 20000 µg/mL (Klebsiella pneumoniae): 6 mm | zone of inhibition at 20000 µg/mL (Staphylococcus aureus [5]): 5 mm

O=c1nc2c3c([nH]1)Oc1ccccc1C3c1c(c3ccccc3oc1=O)O2 (configuration not stated)
MIC [6]: 12.5 µg/mL (≈ 34.9 µM)

CC1(C)CC(=O)C2=C(C1)Oc1ncn(-c3cccc(Cl)c3)c(=N)c1C2c1ccccc1 (configuration not stated)
Time (Homo sapiens): 54.8 s

CCc1ccc(-n2cnc3c(c2=N)C(c2ccccc2)C2=C(CC(C)(C)CC2=O)O3)cc1 (configuration not stated)
Time (Homo sapiens): 61.8 s

N#CC1=C(N)Oc2[nH]c(=O)[nH]c(=O)c2C1c1ccccc1 (configuration not stated)
zone of inhibition at 20000 µg/mL (Bacillus cereus): 12 mm | diameter of the inhibition zone (DIZ) (Salmonella typhimurium): 10 mm | zone of inhibition at 20000 µg/mL (Pseudomonas aeruginosa): 14 mm | zone of inhibition at 20000 µg/mL (Escherichia coli [4]): 13 mm | zone of inhibition at 20000 µg/mL (Klebsiella pneumoniae): 5 mm | diameter of the inhibition zone (DIZ) (Bacillus subtilis): 10 mm | diameter of the inhibition zone (DIZ) (Staphylococcus aureus [2]): 8 mm | zone of inhibition at 20000 µg/mL (Staphylococcus aureus [5]): 8 mm

COc1ccc(C2C(C(=O)N3CCCCC3)=C(c3ccccc3O)Oc3[nH]c(=S)[nH]c(=O)c32)cc1 (configuration not stated)
IC50 (Albumin): 18.1 µM | IC50 (Alpha-glucosidase): 5223 µM | IC50 [3]: 16.1 µM

O=c1nc2c3c([nH]1)Oc1cc(O)ccc1C3c1c(c3ccccc3oc1=O)O2 (configuration not stated)
MIC [6]: 50 µg/mL (≈ 134 µM)

N#CC1=C(N)Oc2[nH]c(=O)[nH]c(=O)c2C1c1cccc(O)c1 (configuration not stated)
zone of inhibition at 20000 µg/mL (Bacillus cereus): 10 mm | zone of inhibition at 20000 µg/mL (Pseudomonas aeruginosa): 15 mm | zone of inhibition at 20000 µg/mL (Escherichia coli [4]): 14 mm | zone of inhibition at 20000 µg/mL (Klebsiella pneumoniae): 8 mm | zone of inhibition at 20000 µg/mL (Staphylococcus aureus [5]): 15 mm

Cc1cccc(-n2cnc3c(c2=N)C(c2ccccc2)C2=C(CC(C)(C)CC2=O)O3)c1 (configuration not stated)
Time (Homo sapiens): 53.7 s

N#CC1=C(N)Oc2[nH]c(=O)[nH]c(=O)c2C1c1ccccc1Cl (configuration not stated)
diameter of the inhibition zone (DIZ) (Salmonella typhimurium): 18 mm | diameter of the inhibition zone (DIZ) (Escherichia coli [1]): 14 mm | diameter of the inhibition zone (DIZ) (Bacillus subtilis): 18 mm | diameter of the inhibition zone (DIZ) (Staphylococcus aureus [2]): 20 mm
